# Measured values published in publication PMC12494099, “Discovery and Characterization of Novel IKZF1/3 Glue Degraders against Multiple Hematological Cancer Cell Lines” (Oncology Research, 2025).
# Legend:
# Assay in all cases: MS-based quantitative proteomics in NCI-H929 cells
# Assay type in all cases: cell-based
# CK1α = target: T1, CK1α (Homo sapiens, UniProt P48729); conditions: NCI-H929, 10 μM, 4 h; not notably downregulated
# T1 construct: endogenous in cells; host or cells: NCI-H929
# Description: (§1) NCI-H929 cells were treated with either 10 μM DMSO or 10 μM MGD-C9 for 4 h. Post-treatment, the cells were washed with PBS (pH = 7.2–7.4, 1×) and then lysed in 8M Urea (UA) (comprising 8M urea, 100 mM Tris-HCl, pH = 8.0). Subsequently, the cell lysate was subjected to centrifugation on a high-speed freezing microcentrifuge (#CF1524R; SCILOGEX, Meriden, CT, USA) at […], and the supernatant was collected. Subsequently, the collected supernatant was treated with 10 mM tris (2-carboxyethyl) phosphine hydrochloride (TCEP) to reduce it for 30 min. Following this, cysteine alkylation was performed using 50 mM 2-chloroacetamide (CAA) for an additional 30 min. The denatured proteins were then digested with trypsin (1 μg/μL) at an enzyme-to-protein ratio of 1:50 and incubated at 37°C overnight. The reaction was stopped by adding 0.1% formic acid (FA). The samples were desalted using 100 μL pipette tips packed with C18 discs (3M, Saint Paul, MN, USA). Prior to sample loading, the tips were conditioned sequentially with 80 μL of acetonitrile (ACN), followed by 80 μL of a 1:1 (v/v) mixture of H2O and ACN, and finally with 80 μL of H2O. The conditioned tips were loaded with peptides. Then, they were washed twice with 80 μL of H2O. After that, the peptides were eluted twice using 80 μL of a solution composed of 50% water and 50% acetonitrile (ACN). The resulting eluates were vacuum-dried and then reconstituted in 0.1% formic acid for the subsequent LC-MS/MS analysis.
# (§2) The peptide mixtures were analyzed using an EASY-nLC 1200 liquid chromatography system (Thermo Fisher Scientific, WLM, MA, USA) equipped with a custom-made 15 cm C18 column (150 μm ID, 1.9 μm particle size, 100 Å pore size). Peptide separation was performed over a 75-min gradient at a constant flow rate of 600 nL/min. The gradient profile was as follows: 4%–7% buffer B (1 min), 7%–13% buffer B (6 min), 13%–25% buffer B (38 min), 25%–45% buffer B (22 min), 45%–95% buffer B (1 min), followed 95% buffer B (7-min). The buffers used were Buffer A (0.1% formic acid) and Buffer B (0.1% formic acid in 80% acetonitrile). The peptide mixtures were then analyzed using a Q Exactive HF mass spectrometer (Thermo Fisher Scientific). MS data were acquired in data-dependent acquisition (DDA) mode with a dynamic exclusion duration of 15 s. MS1 scans were acquired in positive-ion mode across a mass-to-charge (m/z) range of 300–1400, with a resolution of 120,000 (at m/z 200) and a maximum injection time of 50 ms. Precursor ions were fragmented using higher-energy collision dissociation (HCD) at 27% normalized collision energy. MS2 spectra were collected with an AGC target of 5.0 × 10^4 and a maximum injection time of 20 ms.
# (§3) Label-free MS raw data were processed using MaxQuant (v2.4) against the UniProt Human database (https://www.uniprot.org/, downloaded May 2024; 20,434 entries). A strict false discovery rate (FDR) threshold of ≤0.01 was applied at the spectra, protein, and modification levels. Contaminants and reverse database hits were excluded. Default settings were used for all other parameters. Protein groups output by MaxQuant were further analyzed in R (v4.2.1). Student’s t-test, and p-values < 0.01 were considered statistically significant for statistical analyses and a volcano plot was generated with GraphPad Prism 8.0.
# GSPT1 = target: T2, GSPT1 (Homo sapiens, UniProt P15170); conditions: NCI-H929, 10 μM, 4 h; not notably downregulated
# T2 construct: endogenous in cells; host or cells: NCI-H929
# T2 sequence (Q96SW2 whole entry partner): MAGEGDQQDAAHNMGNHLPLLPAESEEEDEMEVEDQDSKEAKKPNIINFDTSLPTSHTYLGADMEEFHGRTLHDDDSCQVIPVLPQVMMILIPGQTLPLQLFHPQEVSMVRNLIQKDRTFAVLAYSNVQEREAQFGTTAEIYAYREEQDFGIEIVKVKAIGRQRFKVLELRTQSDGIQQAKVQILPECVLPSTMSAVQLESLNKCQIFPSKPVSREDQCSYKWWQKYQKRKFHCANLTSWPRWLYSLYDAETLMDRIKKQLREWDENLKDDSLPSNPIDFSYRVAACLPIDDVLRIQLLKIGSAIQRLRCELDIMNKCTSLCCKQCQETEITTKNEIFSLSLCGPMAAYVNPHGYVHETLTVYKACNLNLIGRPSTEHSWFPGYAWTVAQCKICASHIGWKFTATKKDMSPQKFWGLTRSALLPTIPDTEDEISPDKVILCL
# T2 sequence (Q16531 whole entry partner): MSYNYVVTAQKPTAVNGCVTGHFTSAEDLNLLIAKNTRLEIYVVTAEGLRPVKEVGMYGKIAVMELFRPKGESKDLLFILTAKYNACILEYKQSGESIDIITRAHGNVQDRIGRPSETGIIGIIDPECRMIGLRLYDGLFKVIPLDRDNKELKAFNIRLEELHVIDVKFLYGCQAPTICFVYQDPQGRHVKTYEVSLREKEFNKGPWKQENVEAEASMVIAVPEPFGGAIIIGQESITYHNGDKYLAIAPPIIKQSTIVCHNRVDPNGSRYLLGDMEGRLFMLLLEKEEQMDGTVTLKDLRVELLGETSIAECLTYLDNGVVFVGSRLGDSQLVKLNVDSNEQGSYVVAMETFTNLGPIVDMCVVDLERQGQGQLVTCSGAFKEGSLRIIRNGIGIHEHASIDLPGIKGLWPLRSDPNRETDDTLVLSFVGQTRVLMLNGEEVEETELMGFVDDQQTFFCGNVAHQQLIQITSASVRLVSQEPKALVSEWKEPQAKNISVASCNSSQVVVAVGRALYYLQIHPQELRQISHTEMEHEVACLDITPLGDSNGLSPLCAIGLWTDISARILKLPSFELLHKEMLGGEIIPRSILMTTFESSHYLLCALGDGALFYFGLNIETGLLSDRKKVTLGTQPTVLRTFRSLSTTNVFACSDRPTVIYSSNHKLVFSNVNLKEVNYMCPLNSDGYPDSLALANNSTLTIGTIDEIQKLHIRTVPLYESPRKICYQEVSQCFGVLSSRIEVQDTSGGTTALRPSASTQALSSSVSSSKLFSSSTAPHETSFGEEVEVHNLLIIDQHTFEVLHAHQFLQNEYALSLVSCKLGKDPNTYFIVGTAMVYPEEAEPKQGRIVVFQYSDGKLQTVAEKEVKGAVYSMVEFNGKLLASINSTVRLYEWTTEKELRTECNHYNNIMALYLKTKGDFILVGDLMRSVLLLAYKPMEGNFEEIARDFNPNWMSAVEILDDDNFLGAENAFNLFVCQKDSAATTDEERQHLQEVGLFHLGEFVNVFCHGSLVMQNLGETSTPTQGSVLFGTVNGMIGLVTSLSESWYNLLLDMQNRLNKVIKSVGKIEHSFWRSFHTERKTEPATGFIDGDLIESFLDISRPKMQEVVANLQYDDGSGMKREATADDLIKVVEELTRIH
# T2 sequence (P15170 whole entry): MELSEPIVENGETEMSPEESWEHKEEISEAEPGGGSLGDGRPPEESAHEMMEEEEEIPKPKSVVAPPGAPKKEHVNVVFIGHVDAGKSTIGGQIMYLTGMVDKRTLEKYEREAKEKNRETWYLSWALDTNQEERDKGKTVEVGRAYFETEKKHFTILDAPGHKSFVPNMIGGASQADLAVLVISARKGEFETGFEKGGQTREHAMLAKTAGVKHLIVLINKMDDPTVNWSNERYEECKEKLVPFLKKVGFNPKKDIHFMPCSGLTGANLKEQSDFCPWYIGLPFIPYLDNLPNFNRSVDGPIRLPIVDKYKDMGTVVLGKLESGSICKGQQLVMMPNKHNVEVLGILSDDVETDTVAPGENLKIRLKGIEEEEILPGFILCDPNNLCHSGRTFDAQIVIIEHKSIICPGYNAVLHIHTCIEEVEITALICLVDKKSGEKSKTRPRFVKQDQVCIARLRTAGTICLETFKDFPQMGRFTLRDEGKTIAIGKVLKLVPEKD
# Description: as §1, §2, §3
# IKZF3 = target: T3, IKZF3 (Homo sapiens, UniProt Q96SW2+Q9UKT9); conditions: NCI-H929, 10 μM, 4 h
# T3 construct: endogenous in cells; host or cells: NCI-H929
# Description: as §1, §2, §3
# IKZF4 = target: T4, IKZF4 (Homo sapiens, UniProt Q9H2S9); conditions: NCI-H929, 10 μM, 4 h; not notably downregulated
# T4 construct: endogenous in cells; host or cells: NCI-H929
# T4 sequence (Q96SW2 whole entry partner): as the sequence (Q96SW2 whole entry partner) above
# T4 sequence (Q16531 whole entry partner): as the sequence (Q16531 whole entry partner) above
# T4 sequence (Q9H2S9 whole entry): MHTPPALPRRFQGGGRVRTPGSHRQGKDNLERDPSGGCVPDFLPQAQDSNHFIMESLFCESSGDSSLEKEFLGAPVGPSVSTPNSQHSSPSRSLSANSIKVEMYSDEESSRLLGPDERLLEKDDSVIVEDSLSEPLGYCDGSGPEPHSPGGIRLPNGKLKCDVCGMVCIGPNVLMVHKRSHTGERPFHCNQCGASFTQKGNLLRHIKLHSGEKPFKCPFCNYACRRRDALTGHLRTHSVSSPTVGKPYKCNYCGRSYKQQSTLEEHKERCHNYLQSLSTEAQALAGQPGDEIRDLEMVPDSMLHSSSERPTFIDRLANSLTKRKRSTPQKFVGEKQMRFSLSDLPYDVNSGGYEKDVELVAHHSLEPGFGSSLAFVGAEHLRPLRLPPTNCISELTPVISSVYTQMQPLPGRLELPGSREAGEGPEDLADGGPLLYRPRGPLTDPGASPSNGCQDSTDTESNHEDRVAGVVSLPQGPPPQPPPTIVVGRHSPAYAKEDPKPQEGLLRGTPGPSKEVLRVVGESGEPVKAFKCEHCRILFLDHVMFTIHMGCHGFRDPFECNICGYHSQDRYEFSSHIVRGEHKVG
# Description: as §1, §2, §3
# PLZF = target: T5, PLZF (Homo sapiens, UniProt Q05516); conditions: NCI-H929, 10 µM
# T5 construct: endogenous in cells; host or cells: NCI-H929
# Description: as §1, §2, §3
# SALL4 = target: T6, SALL4 (Homo sapiens, UniProt Q9UJQ4); conditions: NCI-H929, 10 µM
# T6 construct: endogenous in cells; host or cells: NCI-H929
# T6 sequence (Q96SW2 whole entry partner): as the sequence (Q96SW2 whole entry partner) above
# T6 sequence (Q16531 whole entry partner): as the sequence (Q16531 whole entry partner) above
# T6 sequence (Q9UJQ4 whole entry): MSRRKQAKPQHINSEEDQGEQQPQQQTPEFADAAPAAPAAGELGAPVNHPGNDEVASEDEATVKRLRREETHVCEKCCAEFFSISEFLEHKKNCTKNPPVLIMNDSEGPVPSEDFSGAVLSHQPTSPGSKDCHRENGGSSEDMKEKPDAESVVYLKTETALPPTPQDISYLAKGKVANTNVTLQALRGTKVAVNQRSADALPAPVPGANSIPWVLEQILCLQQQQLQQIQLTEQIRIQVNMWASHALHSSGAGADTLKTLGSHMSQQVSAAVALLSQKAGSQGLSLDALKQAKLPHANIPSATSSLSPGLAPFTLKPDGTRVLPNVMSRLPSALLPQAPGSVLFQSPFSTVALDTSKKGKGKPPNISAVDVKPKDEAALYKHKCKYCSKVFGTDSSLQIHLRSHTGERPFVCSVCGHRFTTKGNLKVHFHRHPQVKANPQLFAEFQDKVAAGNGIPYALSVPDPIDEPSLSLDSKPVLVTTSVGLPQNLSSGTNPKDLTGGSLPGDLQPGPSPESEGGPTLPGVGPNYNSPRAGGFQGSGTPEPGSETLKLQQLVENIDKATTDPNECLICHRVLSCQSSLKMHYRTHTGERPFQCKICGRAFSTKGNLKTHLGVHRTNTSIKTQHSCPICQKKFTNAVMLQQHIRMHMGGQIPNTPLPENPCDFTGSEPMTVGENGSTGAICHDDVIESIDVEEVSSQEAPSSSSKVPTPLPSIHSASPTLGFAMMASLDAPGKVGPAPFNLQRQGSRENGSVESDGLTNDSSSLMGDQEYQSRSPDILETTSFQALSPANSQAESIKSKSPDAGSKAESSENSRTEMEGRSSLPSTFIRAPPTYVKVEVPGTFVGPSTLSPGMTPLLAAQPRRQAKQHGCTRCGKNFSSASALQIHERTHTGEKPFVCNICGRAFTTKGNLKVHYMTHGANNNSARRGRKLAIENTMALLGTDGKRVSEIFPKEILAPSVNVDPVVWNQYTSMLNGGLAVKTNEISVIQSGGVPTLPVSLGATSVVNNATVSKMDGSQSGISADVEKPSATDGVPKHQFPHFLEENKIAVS
# Description: as §1, §2, §3
# IKZF2 = IKZF2 (Homo sapiens, UniProt Q9UKS7); set-up: endogenous in cells; host or cells: NCI-H929; conditions: NCI-H929, 10 μM, 4 h; not notably downregulated
# Sequence of IKZF2 (Q96SW2 whole entry partner): as the sequence (Q96SW2 whole entry partner) above
# Sequence of IKZF2 (Q16531 whole entry partner): as the sequence (Q16531 whole entry partner) above
# Sequence of IKZF2 (Q9UKS7 whole entry): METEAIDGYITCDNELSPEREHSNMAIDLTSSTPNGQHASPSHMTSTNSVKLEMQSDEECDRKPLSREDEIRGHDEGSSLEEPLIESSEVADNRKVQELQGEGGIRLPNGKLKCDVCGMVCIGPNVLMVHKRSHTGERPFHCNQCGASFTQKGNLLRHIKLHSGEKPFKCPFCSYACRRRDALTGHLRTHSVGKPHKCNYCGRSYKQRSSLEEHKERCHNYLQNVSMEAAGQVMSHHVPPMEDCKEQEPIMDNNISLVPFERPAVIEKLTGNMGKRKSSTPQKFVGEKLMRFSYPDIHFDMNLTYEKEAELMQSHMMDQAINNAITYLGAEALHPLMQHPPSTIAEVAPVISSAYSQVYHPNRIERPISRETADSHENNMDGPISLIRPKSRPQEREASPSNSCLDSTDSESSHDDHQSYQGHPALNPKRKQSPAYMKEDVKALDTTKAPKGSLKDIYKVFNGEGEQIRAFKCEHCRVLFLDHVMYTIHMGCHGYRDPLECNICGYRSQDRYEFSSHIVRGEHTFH
# Description: NCI-H929 cells were treated with either 10 μM DMSO or 10 μM MGD-C9 for 4 h. Post-treatment, the cells were washed with PBS (pH = 7.2–7.4, 1×) and then lysed in 8M Urea (UA) (comprising 8M urea, 100 mM Tris-HCl, pH = 8.0). Subsequently, the cell lysate was subjected to centrifugation on a high-speed freezing microcentrifuge (#CF1524R; SCILOGEX, Meriden, CT, USA) at […], and the supernatant was collected. Subsequently, the collected supernatant was treated with 10 mM tris (2-carboxyethyl) phosphine hydrochloride (TCEP) to reduce it for 30 min. Following this, cysteine alkylation was performed using 50 mM 2-chloroacetamide (CAA) for an additional 30 min. The denatured proteins were then digested with trypsin (1 μg/μL) at an enzyme-to-protein ratio of 1:50 and incubated at 37°C overnight. […]
# The peptide mixtures were analyzed using an EASY-nLC 1200 liquid chromatography system (Thermo Fisher Scientific, WLM, MA, USA) equipped with a custom-made 15 cm C18 column (150 μm ID, 1.9 μm particle size, 100 Å pore size). […] The peptide mixtures were then analyzed using a Q Exactive HF mass spectrometer (Thermo Fisher Scientific). […]
# Label-free MS raw data were processed using MaxQuant (v2.4) against the UniProt Human database (https://www.uniprot.org/, downloaded May 2024; 20,434 entries). […] Protein groups output by MaxQuant were further analyzed in R (v4.2.1). […]
# T1 sequence (Q96SW2 whole entry partner): as the sequence (Q96SW2 whole entry partner) above
# T1 sequence (Q16531 whole entry partner): as the sequence (Q16531 whole entry partner) above
# T1 sequence (P48729 whole entry): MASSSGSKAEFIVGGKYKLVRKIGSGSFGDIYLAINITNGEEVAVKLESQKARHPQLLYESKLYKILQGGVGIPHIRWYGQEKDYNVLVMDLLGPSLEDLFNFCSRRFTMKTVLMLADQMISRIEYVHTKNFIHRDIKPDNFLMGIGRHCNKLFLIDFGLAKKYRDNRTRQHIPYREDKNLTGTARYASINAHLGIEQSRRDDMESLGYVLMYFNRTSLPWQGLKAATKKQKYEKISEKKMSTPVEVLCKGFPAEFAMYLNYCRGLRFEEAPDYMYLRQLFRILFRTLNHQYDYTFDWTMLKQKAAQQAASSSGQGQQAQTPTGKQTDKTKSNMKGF
compound,measurement,setting,value
"CN1CCN(Cc2cccc(C(=O)NC3CCC(=O)NC3=O)c2F)C(=O)C1 (stereo not shown) [MGD-C9, N-(2,6-dioxopiperidin-3-yl)-2-fluoro-3-((4-methyl-2-oxopiperazin-1-yl)methyl)benzamide]",absolute [log2(fold change)] of CK1α,CK1α,less than 1
same,absolute [log2(fold change)] of GSPT1,GSPT1,less than 1
same,reduction of IKZF3 (proteomics),IKZF3,~80.2%
same,absolute [log2(fold change)] of IKZF4,IKZF4,less than 1
same,PLZF level (proteomics),PLZF,remained unaffected
same,SALL4 level (proteomics),SALL4,remained unaffected
same,absolute [log2(fold change)] of IKZF2,IKZF2,less than 1
